Source: patent publication EP3868759A1, “2,3,5-SUBSTITUTED PYRROLO[2,3-B]PYRIDINES AS ERBB MODULATORS USEFUL FOR TREATING CANCER” (PearlRiver Bio GmbH, priority 2020, dated 2021)
pIC50: −log10 of the molar value.

Assays:
HER2 INS YVMA = molecular target: T1, HER2 INS YVMA (Homo sapiens, UniProt P04626, INS775YVMA); assay: Lance Kinase Activity Assay, Her2 Exon 20 InsYVMA; conditions: biochemical Lance assay
T1 construct: purchased DPF
Description: This protocol describes how the Lance Kinase Activity Assay was performed to determine IC50 values of compounds of general formula (I) against HER2 INS YVMA. The principle behind this enzymatic assay is based upon the phosphorylation of the Ulight-peptide substrate. It is detected by using a specific EU-labeled anti-phospho peptide antibody. The binding of the Eu labeled anti-phospho peptide antibody to the phosphorylated ULight labeled peptide gives rise to a FRET-signal. Binding of an inhibitor to the kinase prevents phosphorylation of the Ulight-substrate, resulting in a loss of FRET. In table 2 is summarized the relevant information for the LANCE assay. Table 2: Reagents, stock concentrations and final assay concentrations for Her2 INS YVMA.
The compounds of general formula (I) summarized in Table 3 were serial diluted from a 10 mM DMSO stock solution 1:3 over 8 steps in a total volume of 20 µl. For every sample, 8 µl of kinase-substrate mix was transferred into a suitable assay plate (e.g. Corning #3673). Compound was added via pintool transfer (10nl/well) using a Biomek FX robot (BeckmanCoulter). Reaction was started by addition of 2µl ATP working solution and mixed using variomag teleshaker (Thermo Fischer Scientific). After 1 h incubation at room temperature the reaction was stopped with 10µl detection mix containing the Eu-labeled phosphospecific antibody and 10mM EDTA. After a second incubation period of 1 h at room temperature the FRET signal was measured at 340 nm excitation, 665 nm and 615 nm emission (for the ULight-substrate and Eu-AB, respectively) with an Envision spectrophotometer (Perkin Elmer, Waltham, MA, USA) with 50 µs delay and 300 µs integration time. IC50 values were determined from the sigmoidal dose response curves with the software Quattro Workflow (Quattro GmbH, Munich, Germany).

[1] = tested on: EGFR Exon 20 InsNPH Ba/F3; assay: CellTiter-Glo cell viability, EGFR Exon 20 InsNPH Ba/F3; type: cell-based; conditions: Mus musculus, BaF3, 72 h, read-out: EGFR Exon 20 InsNPH Ba/F3 CTG IC50
Description: (§1) The CellTiter-Glo Luminescent Cell Viability Assay (Promega) is a homogeneous method of determining the number of viable cells in culture. It is based on quantification of ATP, indicating the presence of metabolically active cells. Cells are seeded on day 1 at cell numbers that assure assay linearity and optimal signal intensity. After incubation for 24h in humidified chambers at 37°C and 5% CO2, compounds in DMSO are added at different concentrations. Cells are further incubated for 72 h at 37°C and 5% CO2. Cells treated with the compound vehicle DMSO are used as positive controls and cells treated with 10 µM Staurosporine serve as negative controls. At day 5 the CellTiter Glo Reagent is prepared according to the instructions of the kit (Promega Inc.): Reagent is mixed 1:1 with cell culture medium. Thereon, mixture and assay plates are equilibrated at room temperature for 20 min. Equal volumes of the reagent-medium-mixture is added to the volume of culture medium present in each well. The plates are mixed at ∼200 rpm for 2 minutes on an orbital shaker. The microplates are then incubated at room temperature for 10 minutes for stabilization of the luminescent signal. Following incubation the luminescence is recorded on a Victor microplate reader (Perkin Elmer) using a 200 ms integration time. The data is then analyzed with Excel using the XLFIT Plugin (dose response Fit 205) for IC50-determination. As quality control the Z'-factor is calculated from 16 positive and negative control values. Only assay results showing a Z'-factor ≥ 0.5 are used for further analysis.

[2] = tested on: Her2 Exon 20 InsYVMA Ba/F3; assay: CellTiter-Glo cell viability, Her2 Exon 20 InsYVMA Ba/F3; type: cell-based; conditions: Mus musculus, BaF3, 72 h, read-out: Her2 Exon 20 InsYVMA Ba/F3 CTG IC50
Description: as §1

EGFR T790M L858R = EGFR T790M L858R (Homo sapiens, UniProt P00533, L858R/T790M); assay: Lance assay, EGFR T790M L858R; conditions: biochemical Lance assay
EGFR L858R = EGFR L858R (Homo sapiens, UniProt P00533, L858R); assay: Lance assay, EGFR L858R; conditions: biochemical Lance assay
EGFR (del746-750) = EGFR (del746-750) (Homo sapiens, UniProt P00533, DEL746-750); assay: Lance assay, EGFR (del746-750); conditions: biochemical Lance assay
EGFR wt = EGFR wt (Homo sapiens, UniProt P00533); assay: Lance assay, EGFR wt; conditions: biochemical Lance assay
A431 = assay: CellTiter-Glo cell viability, A431; type: cell-based; conditions: Homo sapiens, A-431, 72 h, read-out: A431 CTG IC50
Description: as §1

EGFR L858R T790M Ba/F3 = assay: CellTiter-Glo cell viability, EGFR L858R T790M Ba/F3; type: cell-based; conditions: Mus musculus, BaF3, 72 h, read-out: EGFR L858R T790M Ba/F3 CTG IC50 /
Description: as §1

EGFR L858R Ba/F3 = assay: CellTiter-Glo cell viability, EGFR L858R Ba/F3; type: cell-based; conditions: Mus musculus, BaF3, 72 h, read-out: EGFR L858R Ba/F3 CTG IC50 /
Description: as §1

EGFR vIII Ba/F3 = assay: CellTiter-Glo cell viability, EGFR vIII Ba/F3; type: cell-based; conditions: Mus musculus, BaF3, 72 h, read-out: EGFR vIII Ba/F3 CTG IC50 /
Description: as §1

Cuto-17 = assay: CellTiter-Glo cell viability, Cuto-17; type: cell-based; conditions: CUTO17, 72 h, read-out: Cuto-17 CTG IC50
Description: as §1

H1975 = assay: CellTiter-Glo cell viability, H1975; type: cell-based; conditions: Homo sapiens, NCI-H1975, 72 h, read-out: H1975 CTG IC50
Description: as §1

T1 sequence (P04626 with tags, fused parts or gaps INS775YVMA): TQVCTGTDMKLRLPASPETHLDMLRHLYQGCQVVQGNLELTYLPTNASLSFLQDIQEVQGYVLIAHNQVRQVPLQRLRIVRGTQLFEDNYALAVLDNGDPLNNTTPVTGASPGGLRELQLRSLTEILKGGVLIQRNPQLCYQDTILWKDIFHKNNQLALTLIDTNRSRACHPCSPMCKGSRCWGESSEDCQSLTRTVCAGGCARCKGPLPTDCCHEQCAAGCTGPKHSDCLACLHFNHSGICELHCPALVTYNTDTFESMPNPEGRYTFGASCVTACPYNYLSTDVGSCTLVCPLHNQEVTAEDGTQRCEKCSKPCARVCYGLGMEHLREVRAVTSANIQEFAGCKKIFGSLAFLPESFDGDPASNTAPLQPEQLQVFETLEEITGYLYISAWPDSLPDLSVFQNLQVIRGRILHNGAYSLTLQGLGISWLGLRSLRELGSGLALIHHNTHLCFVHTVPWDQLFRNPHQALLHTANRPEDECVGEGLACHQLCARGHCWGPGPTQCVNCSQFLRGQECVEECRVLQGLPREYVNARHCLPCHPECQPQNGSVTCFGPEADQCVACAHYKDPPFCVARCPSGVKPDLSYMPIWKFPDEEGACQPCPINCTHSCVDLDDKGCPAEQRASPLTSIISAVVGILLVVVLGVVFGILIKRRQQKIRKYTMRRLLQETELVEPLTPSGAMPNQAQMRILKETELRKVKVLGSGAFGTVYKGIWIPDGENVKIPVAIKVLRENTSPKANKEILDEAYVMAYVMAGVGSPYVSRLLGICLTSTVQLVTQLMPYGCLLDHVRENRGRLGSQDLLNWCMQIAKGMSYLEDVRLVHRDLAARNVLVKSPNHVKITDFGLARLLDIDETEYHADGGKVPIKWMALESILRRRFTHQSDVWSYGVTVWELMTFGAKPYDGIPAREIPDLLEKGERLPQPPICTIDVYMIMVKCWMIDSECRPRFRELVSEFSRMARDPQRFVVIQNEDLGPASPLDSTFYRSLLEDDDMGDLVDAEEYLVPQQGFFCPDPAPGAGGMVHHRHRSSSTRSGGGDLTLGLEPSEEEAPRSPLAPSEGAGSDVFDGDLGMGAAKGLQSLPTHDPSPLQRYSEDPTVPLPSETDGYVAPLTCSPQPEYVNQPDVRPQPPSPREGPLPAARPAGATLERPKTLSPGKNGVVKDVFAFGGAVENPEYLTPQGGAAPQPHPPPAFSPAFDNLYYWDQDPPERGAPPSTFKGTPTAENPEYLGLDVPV
Chain of EGFR L858R (P00533 25-1210 L858R): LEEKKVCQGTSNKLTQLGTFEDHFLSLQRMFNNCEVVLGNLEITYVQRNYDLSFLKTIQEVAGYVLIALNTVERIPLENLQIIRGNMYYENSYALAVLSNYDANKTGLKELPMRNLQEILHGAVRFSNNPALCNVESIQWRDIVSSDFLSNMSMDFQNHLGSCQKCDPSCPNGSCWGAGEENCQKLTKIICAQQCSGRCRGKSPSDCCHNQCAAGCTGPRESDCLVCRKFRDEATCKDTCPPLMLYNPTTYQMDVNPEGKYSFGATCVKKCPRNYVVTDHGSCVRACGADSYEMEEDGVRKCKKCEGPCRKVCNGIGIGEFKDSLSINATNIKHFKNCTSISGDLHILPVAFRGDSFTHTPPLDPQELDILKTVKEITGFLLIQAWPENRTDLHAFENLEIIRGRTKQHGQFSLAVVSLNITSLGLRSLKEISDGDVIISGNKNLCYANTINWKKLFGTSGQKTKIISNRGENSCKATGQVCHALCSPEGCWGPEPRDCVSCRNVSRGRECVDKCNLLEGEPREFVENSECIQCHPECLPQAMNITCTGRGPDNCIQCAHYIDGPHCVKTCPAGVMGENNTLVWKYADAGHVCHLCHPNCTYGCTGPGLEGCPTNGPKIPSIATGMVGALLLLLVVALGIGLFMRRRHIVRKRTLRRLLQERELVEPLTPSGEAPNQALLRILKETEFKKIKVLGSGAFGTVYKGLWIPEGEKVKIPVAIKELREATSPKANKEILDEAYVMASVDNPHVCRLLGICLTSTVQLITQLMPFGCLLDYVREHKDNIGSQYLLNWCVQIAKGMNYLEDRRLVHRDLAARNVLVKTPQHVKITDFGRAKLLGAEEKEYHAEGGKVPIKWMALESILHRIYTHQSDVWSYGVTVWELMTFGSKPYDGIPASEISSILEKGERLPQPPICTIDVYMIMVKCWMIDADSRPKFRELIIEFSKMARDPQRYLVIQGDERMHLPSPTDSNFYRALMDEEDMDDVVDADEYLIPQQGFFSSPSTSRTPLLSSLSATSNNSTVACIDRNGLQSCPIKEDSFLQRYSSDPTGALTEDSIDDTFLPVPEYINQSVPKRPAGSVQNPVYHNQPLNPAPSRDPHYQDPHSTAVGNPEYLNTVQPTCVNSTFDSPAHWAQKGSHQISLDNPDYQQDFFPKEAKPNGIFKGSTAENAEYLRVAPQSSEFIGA
Chain of EGFR (del746-750) (P00533 with tags, fused parts or gaps DEL746-750): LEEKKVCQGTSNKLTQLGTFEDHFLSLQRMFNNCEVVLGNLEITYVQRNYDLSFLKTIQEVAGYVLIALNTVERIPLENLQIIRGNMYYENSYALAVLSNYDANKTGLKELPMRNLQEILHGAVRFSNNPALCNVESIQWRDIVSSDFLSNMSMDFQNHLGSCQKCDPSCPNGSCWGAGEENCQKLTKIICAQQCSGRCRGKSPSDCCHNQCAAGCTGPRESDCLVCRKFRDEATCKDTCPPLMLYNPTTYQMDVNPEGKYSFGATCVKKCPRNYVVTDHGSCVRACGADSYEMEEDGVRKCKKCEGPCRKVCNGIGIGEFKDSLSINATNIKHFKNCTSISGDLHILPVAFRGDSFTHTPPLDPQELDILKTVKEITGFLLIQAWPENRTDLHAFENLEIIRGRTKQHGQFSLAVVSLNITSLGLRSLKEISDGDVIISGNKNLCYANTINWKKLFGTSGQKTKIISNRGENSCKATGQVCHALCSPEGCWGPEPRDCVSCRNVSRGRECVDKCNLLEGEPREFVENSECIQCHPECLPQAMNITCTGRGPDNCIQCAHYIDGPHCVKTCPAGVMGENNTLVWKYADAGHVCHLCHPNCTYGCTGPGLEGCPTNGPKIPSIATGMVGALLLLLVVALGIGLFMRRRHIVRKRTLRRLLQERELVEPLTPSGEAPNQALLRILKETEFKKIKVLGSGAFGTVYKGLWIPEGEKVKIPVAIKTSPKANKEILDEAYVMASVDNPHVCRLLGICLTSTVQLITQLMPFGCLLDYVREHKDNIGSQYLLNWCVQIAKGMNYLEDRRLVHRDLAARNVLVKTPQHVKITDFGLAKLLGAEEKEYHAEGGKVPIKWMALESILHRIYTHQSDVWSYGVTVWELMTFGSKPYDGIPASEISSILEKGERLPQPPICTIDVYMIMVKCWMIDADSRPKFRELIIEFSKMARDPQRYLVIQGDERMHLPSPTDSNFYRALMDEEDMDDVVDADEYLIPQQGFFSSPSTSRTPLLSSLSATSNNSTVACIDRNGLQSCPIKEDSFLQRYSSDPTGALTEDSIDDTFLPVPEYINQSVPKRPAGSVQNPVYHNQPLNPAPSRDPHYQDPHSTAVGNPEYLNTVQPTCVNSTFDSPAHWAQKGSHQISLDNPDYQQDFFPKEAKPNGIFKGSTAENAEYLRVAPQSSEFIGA
Chain of EGFR T790M L858R (P00533 25-1210 T790M/L858R): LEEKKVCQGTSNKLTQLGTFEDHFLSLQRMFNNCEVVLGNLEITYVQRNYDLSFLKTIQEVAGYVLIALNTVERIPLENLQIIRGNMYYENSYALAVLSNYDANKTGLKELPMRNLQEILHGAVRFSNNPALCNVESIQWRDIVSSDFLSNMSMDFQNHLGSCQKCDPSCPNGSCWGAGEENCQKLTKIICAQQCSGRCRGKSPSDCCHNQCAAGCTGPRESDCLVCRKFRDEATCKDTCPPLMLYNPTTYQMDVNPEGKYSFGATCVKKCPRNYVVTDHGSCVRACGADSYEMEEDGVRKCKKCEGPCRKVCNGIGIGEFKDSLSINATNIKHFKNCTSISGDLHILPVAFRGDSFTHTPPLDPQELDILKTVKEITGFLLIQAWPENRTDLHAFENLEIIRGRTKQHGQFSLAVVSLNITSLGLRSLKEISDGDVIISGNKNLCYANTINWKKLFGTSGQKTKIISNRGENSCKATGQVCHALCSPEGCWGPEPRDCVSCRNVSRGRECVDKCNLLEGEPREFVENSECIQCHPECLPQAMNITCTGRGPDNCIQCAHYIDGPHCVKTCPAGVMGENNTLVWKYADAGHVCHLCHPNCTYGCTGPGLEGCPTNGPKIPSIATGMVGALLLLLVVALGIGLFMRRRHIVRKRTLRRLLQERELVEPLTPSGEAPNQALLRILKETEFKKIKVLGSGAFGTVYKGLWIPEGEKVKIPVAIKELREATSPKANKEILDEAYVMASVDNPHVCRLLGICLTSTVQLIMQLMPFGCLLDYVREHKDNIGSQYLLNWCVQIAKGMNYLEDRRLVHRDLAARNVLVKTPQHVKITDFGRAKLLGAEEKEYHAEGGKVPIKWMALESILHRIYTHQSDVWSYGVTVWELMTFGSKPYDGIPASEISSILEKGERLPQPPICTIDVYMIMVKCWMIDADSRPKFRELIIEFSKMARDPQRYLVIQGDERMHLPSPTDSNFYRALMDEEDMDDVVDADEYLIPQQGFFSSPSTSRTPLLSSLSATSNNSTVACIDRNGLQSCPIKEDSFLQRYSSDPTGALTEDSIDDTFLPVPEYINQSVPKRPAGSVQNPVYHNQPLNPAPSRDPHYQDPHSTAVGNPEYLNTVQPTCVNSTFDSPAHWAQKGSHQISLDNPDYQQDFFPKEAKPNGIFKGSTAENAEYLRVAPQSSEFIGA

| pIC50 (HER2 INS YVMA) | pIC50 [1] | pIC50 [2] | pIC50 (EGFR T790M L858R) | pIC50 (EGFR L858R) | pIC50 (EGFR (del746-750)) | pIC50 (EGFR wt) | pIC50 (A431) | pIC50 (EGFR L858R T790M Ba/F3) | pIC50 (EGFR L858R Ba/F3) | pIC50 (EGFR vIII Ba/F3) | pIC50 (H1975) | SMILES | pIC50 (Cuto-17) |
| --- | --- | --- | --- | --- | --- | --- | --- | --- | --- | --- | --- | --- | --- |
| 6.30 to 7.00 | 6.30 to 7.00 | 6.00 to 6.30 | ≥ 7.30 | ≥ 7.30 | ≥ 7.30 | ≥ 7.30 | 5.00 to 6.00 | 6.30 to 7.00 | ≥ 7.30 | ≥ 7.30 |  | C=CC(=O)Nc1cc(-c2c(-c3cnn(C)c3)[nH]c3ncc(-c4ccnn4C)cc23)ccc1C [Example 27, N-(2-methyl-5-(2-(1-methyl-1H-pyrazol-4-yl)-5-(-methyl-1 H-pyrazol-5-yl)-1 H-pyrrolo[2,3-b]pyridin-3-yl)phenyl)acrylamide] |  |
| 6.30 to 7.00 | 6.30 to 7.00 | 6.30 to 7.00 | 7.00 to 7.30 | ≥ 7.30 | ≥ 7.30 | ≥ 7.30 | 5.00 to 6.00 | 7.00 to 7.30 | ≥ 7.30 | 7.00 to 7.30 |  | C=CC(=O)Nc1cc(-c2c(-c3cn(C)cn3)[nH]c3ncc(C(=O)OC(C)C)c(C)c23)ccc1C [Example 25, isopropyl 3-(3-acrylamido-4-methylphenyl)-4-methyl-2-(1-methyl-1 H-imidazol-4-yl)-1H-pyrrolo[2,3-b]pyridine-5-carboxylate] |  |
| 6.30 to 7.00 | 6.30 to 7.00 | 6.00 to 6.30 | 7.00 to 7.30 | ≥ 7.30 | ≥ 7.30 | ≥ 7.30 | 5.00 to 6.00 | 6.30 to 7.00 | ≥ 7.30 | 7.00 to 7.30 |  | C=CC(=O)Nc1cc(-c2c(-c3cnn(CCO)c3)[nH]c3ncc(C(=O)OC(C)C)c(C)c23)ccc1C [Example 23, isopropyl 3-(3-acrylamido-4-methylphenyl)-2-(1-(2-hydroxyethyl)-1H-pyrazol-4-yl)-4-methyl-1 H-pyrrolo[2,3-b]pyridine-5-carboxylate] |  |
| 6.30 to 7.00 | 6.30 to 7.00 | 6.00 to 6.30 | 7.00 to 7.30 | ≥ 7.30 | ≥ 7.30 | ≥ 7.30 | 5.00 to 6.00 | 7.00 to 7.30 | ≥ 7.30 | 7.00 to 7.30 |  | C=CC(=O)Nc1cc(-c2c(-c3cnn(CC(C)O)c3)[nH]c3ncc(C(=O)OC(C)C)c(C)c23)ccc1C (stereo not shown) [Example 24, isopropyl 3-(3-acrylamido-4-methylphenyl)-2-(1-(2-hydroxypropyl)-1H-pyrazol-4-yl)-4-methyl-1 H-pyrrolo[2,3-b]pyridine-5-carboxylate] |  |
| 7.00 to 7.30 | 6.30 to 7.00 | 6.00 to 6.30 | ≥ 7.30 | ≥ 7.30 | ≥ 7.30 | ≥ 7.30 | 5.00 to 6.00 | 6.30 to 7.00 | ≥ 7.30 | ≥ 7.30 |  | C=CC(=O)Nc1cc(-c2c(-c3cnn(C)c3)[nH]c3ncc(-c4cnn(CCOC)c4)cc23)ccc1C [Example 33, N-(5-(5-(1-(2-methoxyethyl)-1 H-pyrazol-4-yl)-2-(1-methyl-1 H-pyrazol-4-yl)-1H-pyrrolo[2,3-b]pyridin-3-yl)-2-methylphenyl)acrylamide] |  |
| ≥ 7.30 | ≥ 7.30 | 6.30 to 7.00 | ≥ 7.30 |  |  | ≥ 7.30 | 5.00 to 6.00 |  |  | 6.30 to 7.00 | 6.30 to 7.00 | C=CC(=O)Nc1cc(-c2c(-c3cnn(C4COC4)c3)[nH]c3ncc(C(=O)OC(C)C)c(C)c23)ccc1C [Example 19, isopropyl 3-(3-acrylamido-4-methylphenyl)-4-methyl-2-(1-(oxetan-3-yl)-1 H-pyrazol-4-yl)-1 H-pyrrolo[2,3-b]pyridine-5-carboxylate] | 6.30 to 7.00 |
| ≥ 7.30 | 6.30 to 7.00 | 6.30 to 7.00 | ≥ 7.30 |  |  | ≥ 7.30 | 5.00 to 6.00 |  |  | 6.30 to 7.00 | 6.00 to 6.30 | C=CC(=O)Nc1cc(-c2c(-c3cnn(CCN4CCOCC4)c3)[nH]c3ncc(C(=O)OC(C)C)c(C)c23)ccc1C [Example 17, isopropyl 3-(3-acrylamido-4-methylphenyl)-4-methyl-2-(1-(2-morpholinoethyl)-1 H-pyrazol-4-yl)-1 H-pyrrolo[2,3-b]pyridine-5-carboxylate] | 6.30 to 7.00 |
